Results: ChEMBL document CHEMBL4823324, “Discovery of BMS-986318, a Potent Nonbile Acid FXR Agonist for the Treatment of Nonalcoholic Steatohepatitis” (ACS Med Chem Lett, 2021)
pEC50, pIC50: −log10 of the molar value.

Experiments:
[1] = target: Cytochrome P450 3A4 (Homo sapiens, UniProt P08684); experiment: Inhibition of CYP3A4 (unknown origin) expressed in baculovirus infected insect supersomes preincubated for 15 mins followed by addition of NADPH regenerating system by fluorescence based analysis; format: ADME
Sequence of Cytochrome P450 3A4 (P08684 whole entry, the tested form may be a part): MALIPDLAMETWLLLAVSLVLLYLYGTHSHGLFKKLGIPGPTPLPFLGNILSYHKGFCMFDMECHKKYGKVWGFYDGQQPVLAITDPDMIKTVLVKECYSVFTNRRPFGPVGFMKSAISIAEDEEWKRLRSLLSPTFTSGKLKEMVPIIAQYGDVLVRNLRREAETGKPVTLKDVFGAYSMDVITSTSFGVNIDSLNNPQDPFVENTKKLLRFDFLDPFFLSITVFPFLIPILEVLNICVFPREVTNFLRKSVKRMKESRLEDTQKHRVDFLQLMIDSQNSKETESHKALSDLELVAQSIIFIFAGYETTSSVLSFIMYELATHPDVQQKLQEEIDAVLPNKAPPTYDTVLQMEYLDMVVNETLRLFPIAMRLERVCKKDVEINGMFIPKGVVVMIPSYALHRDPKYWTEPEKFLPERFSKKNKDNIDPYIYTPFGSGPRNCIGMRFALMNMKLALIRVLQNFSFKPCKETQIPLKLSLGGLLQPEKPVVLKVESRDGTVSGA

[2] = target: T1, Nuclear receptor ROR-gamma (Homo sapiens, UniProt P51449); experiment: Antagonist activity at human RORgammaT co-expressed with Gal4-luciferase reporter in human Jurkat cells incubated for 18 hrs by Steady-Glo luciferase reporter based luminescence analysis; format: cell-based
T1 sequence (P51449 whole entry): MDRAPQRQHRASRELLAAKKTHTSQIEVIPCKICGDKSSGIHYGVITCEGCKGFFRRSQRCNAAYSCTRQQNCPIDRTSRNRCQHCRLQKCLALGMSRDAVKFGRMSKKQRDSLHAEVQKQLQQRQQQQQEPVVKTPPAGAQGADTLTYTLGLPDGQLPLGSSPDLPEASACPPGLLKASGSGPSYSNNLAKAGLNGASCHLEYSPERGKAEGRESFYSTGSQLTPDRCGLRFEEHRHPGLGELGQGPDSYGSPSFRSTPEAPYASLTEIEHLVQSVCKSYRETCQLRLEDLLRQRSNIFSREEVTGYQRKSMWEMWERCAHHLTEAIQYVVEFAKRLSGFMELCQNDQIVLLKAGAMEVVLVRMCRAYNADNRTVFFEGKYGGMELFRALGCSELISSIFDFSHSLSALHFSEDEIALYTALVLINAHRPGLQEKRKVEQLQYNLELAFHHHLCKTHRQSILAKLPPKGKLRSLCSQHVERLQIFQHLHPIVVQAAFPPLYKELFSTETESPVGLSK

[3] = target: T2, Nuclear receptor ROR-alpha (Homo sapiens, UniProt P35398); experiment: Antagonist activity at human RORalpha (272 to 557 residues) co-expressed with Gal4-luciferase reporter in human Jurkat cells incubated for 18 hrs by Steady-Glo luciferase reporter based luminescence analysis; format: cell-based
T2 sequence (P35398 whole entry): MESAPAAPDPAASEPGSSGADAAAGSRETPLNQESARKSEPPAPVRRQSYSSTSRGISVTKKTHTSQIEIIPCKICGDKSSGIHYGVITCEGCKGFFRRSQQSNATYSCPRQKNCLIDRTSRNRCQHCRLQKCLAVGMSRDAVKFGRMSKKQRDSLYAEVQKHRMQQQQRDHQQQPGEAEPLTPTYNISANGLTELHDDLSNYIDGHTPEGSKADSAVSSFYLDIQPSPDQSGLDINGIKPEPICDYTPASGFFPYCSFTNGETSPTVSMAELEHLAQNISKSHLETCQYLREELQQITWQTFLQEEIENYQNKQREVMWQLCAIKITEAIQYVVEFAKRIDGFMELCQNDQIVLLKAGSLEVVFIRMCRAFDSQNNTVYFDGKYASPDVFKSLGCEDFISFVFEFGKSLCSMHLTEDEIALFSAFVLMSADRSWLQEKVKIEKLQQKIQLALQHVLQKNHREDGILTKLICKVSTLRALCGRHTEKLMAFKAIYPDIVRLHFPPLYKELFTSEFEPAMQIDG

[4] = target: T3, Oxysterols receptor LXR-alpha (Homo sapiens, UniProt Q13133); experiment: Activation of human LXRalpha co-expressed with TK-luciferase reporter in African green monkey CV-1 cells incubated for overnight by Steady-Glo luciferase reporter gene based luminescence analysis; format: cell-based
T3 sequence (Q13133 whole entry): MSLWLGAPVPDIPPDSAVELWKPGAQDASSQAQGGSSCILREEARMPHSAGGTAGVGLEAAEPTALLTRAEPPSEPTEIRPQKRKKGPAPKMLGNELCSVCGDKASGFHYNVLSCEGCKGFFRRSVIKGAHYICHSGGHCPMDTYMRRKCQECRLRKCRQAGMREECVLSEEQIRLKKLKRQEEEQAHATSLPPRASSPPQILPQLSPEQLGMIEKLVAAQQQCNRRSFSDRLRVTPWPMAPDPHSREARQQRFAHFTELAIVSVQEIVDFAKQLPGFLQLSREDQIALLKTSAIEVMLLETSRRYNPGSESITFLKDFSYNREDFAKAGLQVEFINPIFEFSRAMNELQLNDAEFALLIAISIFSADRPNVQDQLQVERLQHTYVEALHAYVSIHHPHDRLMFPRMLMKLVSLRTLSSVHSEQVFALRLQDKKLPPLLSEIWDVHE

[5] = target: T4, Progesterone receptor (Homo sapiens, UniProt P06401); experiment: Activation of progesterone receptor (unknown origin) by fluorescence polarization based competition assay
T4 sequence (P06401 whole entry): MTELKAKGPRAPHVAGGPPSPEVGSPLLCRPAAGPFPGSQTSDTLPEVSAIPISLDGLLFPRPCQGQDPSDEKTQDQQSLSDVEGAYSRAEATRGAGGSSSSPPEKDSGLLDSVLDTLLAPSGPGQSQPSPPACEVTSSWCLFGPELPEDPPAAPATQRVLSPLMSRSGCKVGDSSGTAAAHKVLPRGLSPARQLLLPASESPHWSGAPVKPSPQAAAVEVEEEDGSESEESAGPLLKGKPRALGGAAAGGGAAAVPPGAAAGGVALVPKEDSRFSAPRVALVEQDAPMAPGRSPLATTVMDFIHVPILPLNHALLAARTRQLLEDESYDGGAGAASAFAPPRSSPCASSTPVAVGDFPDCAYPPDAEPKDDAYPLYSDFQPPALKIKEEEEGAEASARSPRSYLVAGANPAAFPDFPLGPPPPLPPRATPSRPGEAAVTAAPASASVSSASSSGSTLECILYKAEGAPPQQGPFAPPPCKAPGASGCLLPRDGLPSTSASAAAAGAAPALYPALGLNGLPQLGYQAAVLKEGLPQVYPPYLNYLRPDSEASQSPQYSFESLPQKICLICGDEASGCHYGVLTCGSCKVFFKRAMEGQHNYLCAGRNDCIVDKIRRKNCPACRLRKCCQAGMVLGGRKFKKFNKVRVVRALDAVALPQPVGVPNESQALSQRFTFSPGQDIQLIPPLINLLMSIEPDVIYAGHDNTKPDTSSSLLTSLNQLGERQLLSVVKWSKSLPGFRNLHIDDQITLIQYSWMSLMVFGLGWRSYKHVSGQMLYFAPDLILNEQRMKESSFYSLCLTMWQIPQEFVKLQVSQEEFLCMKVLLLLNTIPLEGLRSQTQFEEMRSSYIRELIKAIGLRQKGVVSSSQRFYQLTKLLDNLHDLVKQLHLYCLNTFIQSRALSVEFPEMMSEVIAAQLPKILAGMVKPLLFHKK

[6] = AUC in C57B6 mouse at 1 mg/kg, iv; format: ADME, organism-based; parameters: dose 1 mg/kg; conditions: in vivo
[7] = Plasma protein binding in C57B6 mouse assessed as unbound fraction at 1 mg/kg, iv; format: ADME, organism-based; conditions: in vivo

pIC50 [1]: < 4.40
pIC50 [2]: < 4.40
pIC50 [3]: < 4.40
pEC50 [4]: < 4.40
pEC50 [5]: < 4.40
AUC [6]: 9.32 µM·h
Fu [7]: < 0.01%
SMILES: O=C(O)c1cc(C(F)(F)F)c2cc(N3CCC4(C=C(c5c(-c6c(Cl)cncc6Cl)noc5C5CC5)C4)CC3)ccc2n1
